In ChEMBL document CHEMBL4257081, “Inhibitors of the kynurenine pathway” (2016):
Calls of active or inactive are those of the source. No cut-off for these calls is given here.

Key:
[1] = target: Tryptophan 2,3-dioxygenase (Homo sapiens, UniProt P48775); experiment: Inhibition of recombinant human TDO2 expressed in CHOK1 cells assessed as reduction in kynurenine formation using L-tryptophan as substrate measured after 2 hrs by LC/MS/MS analysis; assay type: cell-based
[2] = target: T1, Indoleamine 2,3-dioxygenase 1 (Homo sapiens, UniProt P14902); experiment: Inhibition of recombinant human N-terminal His-tagged IDO1 (1 to 403 residues) expressed in Escherichia coli assessed as reduction in kynurenine formation using tryptophan as substrate measured by LC/MS/MS analysis
T1 sequence (P14902 whole entry, the tested form may be a part): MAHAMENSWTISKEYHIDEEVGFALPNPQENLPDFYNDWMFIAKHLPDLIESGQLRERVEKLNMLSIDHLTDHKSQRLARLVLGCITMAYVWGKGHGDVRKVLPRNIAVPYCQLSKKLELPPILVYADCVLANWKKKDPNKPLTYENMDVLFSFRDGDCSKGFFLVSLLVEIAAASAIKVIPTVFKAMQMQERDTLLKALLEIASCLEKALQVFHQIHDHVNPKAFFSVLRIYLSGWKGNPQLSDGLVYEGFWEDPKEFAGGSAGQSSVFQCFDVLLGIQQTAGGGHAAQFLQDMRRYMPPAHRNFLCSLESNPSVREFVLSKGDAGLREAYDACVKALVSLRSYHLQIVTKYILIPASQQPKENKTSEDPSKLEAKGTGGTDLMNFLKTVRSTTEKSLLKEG

CT26 [3] = experiment: Antitumor activity against mouse CT26 cells implanted in Balb/C mouse assessed as reduction in tumor growth at 60 mg/kg, po bid measured on day 1,4,6,9,11 and 14 relative to control; assay type: functional; parameters: scale not given: the % may be the effect or the level left
Mus musculus [4] = experiment: In vivo inhibition of IDO1 in po dosed LPS-induced C57BL/6 mouse assessed as reduction in plasma kynurenine levels measured after 2 to 48 hrs by LC/MS/MS analysis; assay type: functional
Mus musculus [5] = experiment: Reduction in plasma kynurenine levels in Balb/C mouse implanted with mouse CT26 cells at 50 mg/kg, po bid for 4 days measured 2 hrs post last dose by LC/MS/MS analysis relative to control; assay type: functional; parameters: scale not given: the % may be the effect or the level left
Mus musculus [6] = experiment: Reduction in plasma kynurenine levels in Balb/C mouse implanted with mouse CT26 cells at 60 mg/kg, po bid measured after 14 days by LC/MS/MS analysis relative to control; assay type: functional; parameters: scale not given: the % may be the effect or the level left
Mus musculus [7] = experiment: Reduction in kynurenine levels in tumor of Balb/C mouse implanted with mouse CT26 cells at 50 mg/kg, po bid for 4 days measured 2 hrs post last dose by LC/MS/MS analysis relative to control; assay type: functional; parameters: scale not given: the % may be the effect or the level left
Mus musculus [8] = experiment: Reduction in kynurenine levels in tumor of Balb/C mouse implanted with mouse CT26 cells at 20 mg/kg, po bid for 4 days measured 2 hrs post last dose by LC/MS/MS analysis relative to control; assay type: functional; parameters: scale not given: the % may be the effect or the level left
Mus musculus [9] = experiment: Reduction in plasma kynurenine levels in Balb/C mouse implanted with mouse CT26 cells at 20 mg/kg, po bid for 4 days measured 2 hrs post last dose by LC/MS/MS analysis relative to control; assay type: functional; parameters: scale not given: the % may be the effect or the level left
CT26 [10] = experiment: (§1) Synergistic antitumor activity against mouse CT26 cells implanted in Balb/c mouse assessed as reduction in tumor volume at 50 mg/kg, po bid for 35 days starting from day 5 post doxorubucin administration followed by second doxorubicin dosing at 3 weeks post doxorubucin dose measured 4 hrs post last dose; assay type: functional, organism-based
Mus musculus [11] = experiment: Reduction in plasma kynurenine levels in Balb/C mouse implanted with mouse CT26 cells at 50 mg/kg, po bid measured after 14 days by LC/MS/MS analysis relative to control; assay type: functional; parameters: scale not given: the % may be the effect or the level left
CT26 [12] = experiment: Antitumor activity against mouse CT26 cells implanted in Balb/C mouse assessed as reduction in tumor growth at 50 mg/kg, po bid measured on day 1,4,6,9,11 and 14 relative to control; assay type: functional; parameters: scale not given: the % may be the effect or the level left
CT26 [13] = experiment: Synergistic antitumor activity against mouse CT26 cells implanted in Balb/c mouse assessed as reduction in time of tumor progression at 50 mg/kg, po bid for 35 days starting from day 5 post doxorubucin administration followed by second doxorubicin dosing at 3 weeks post doxorubucin dose; assay type: functional, organism-based
[14] = target: T1, Indoleamine 2,3-dioxygenase 1; experiment: Inhibition of IDO1 in IFNgamma-stimulated human HeLa cells assessed as reduction in kynurenine formation using L-tryptophan as substrate measured after 15 mins by UV-vis HPLC analysis
[15] = Ratio of drug level in brain to plasma in Sprague-Dawley rat at 10 mg/kg, iv administered as single dose measured after 1 hr by LC/MS/MS analysis; assay type: ADME, organism-based; settings: brain and plasma, read-out: BPR
CT26 [16] = experiment: Antitumor activity against mouse CT26 cells implanted in Balb/C mouse assessed as reduction in tumor growth at 40 mg/kg, po bid measured on day 1,4,6,9,11 and 14; assay type: functional, organism-based
[17] = Ratio of drug level in brain to plasma in Sprague-Dawley rat at 10 mg/kg, iv administered as single dose measured after 0.5 hrs by LC/MS/MS analysis; assay type: ADME, organism-based; settings: brain and plasma, read-out: BPR
Mus musculus [18] = experiment: Reduction in plasma kynurenine levels in Balb/C mouse implanted with mouse CT26 cells at 40 mg/kg, po bid measured after 14 days by LC/MS/MS analysis relative to control; assay type: functional; parameters: scale not given: the % may be the effect or the level left
[19] = Ratio of drug level in brain to plasma in Sprague-Dawley rat at 10 mg/kg, iv administered as single dose measured after 3 hrs by LC/MS/MS analysis; assay type: ADME, organism-based; settings: brain and plasma, read-out: BPR
Mus musculus [20] = experiment: Reduction in plasma kynurenine levels in Balb/C mouse implanted with mouse CT26 cells at 75 mg/kg, po bid measured after 14 days by LC/MS/MS analysis relative to control; assay type: functional; parameters: scale not given: the % may be the effect or the level left
CT26 [21] = experiment: as §1, with “volume at 75 mg/kg, po” for “volume at 50 mg/kg, po”, “weeks post doxorubicin dose measured” for “weeks post doxorubucin dose measured”; assay type: functional, organism-based
CT26 [22] = experiment: Antitumor activity against mouse CT26 cells implanted in Balb/C mouse assessed as reduction in tumor growth at 75 mg/kg, po bid measured on day 1,4,6,9,11 and 14 relative to control; assay type: functional; parameters: scale not given: the % may be the effect or the level left
CT26 [23] = experiment: Synergistic antitumor activity against mouse CT26 cells implanted in Balb/c mouse assessed as reduction in time of tumor progression at 75 mg/kg, po bid for 35 days starting from day 5 post doxorubucin administration followed by second doxorubicin dosing at 3 weeks post doxorubicin dose; assay type: functional, organism-based

Chain of Tryptophan 2,3-dioxygenase (P48775 whole entry, the tested form may be a part): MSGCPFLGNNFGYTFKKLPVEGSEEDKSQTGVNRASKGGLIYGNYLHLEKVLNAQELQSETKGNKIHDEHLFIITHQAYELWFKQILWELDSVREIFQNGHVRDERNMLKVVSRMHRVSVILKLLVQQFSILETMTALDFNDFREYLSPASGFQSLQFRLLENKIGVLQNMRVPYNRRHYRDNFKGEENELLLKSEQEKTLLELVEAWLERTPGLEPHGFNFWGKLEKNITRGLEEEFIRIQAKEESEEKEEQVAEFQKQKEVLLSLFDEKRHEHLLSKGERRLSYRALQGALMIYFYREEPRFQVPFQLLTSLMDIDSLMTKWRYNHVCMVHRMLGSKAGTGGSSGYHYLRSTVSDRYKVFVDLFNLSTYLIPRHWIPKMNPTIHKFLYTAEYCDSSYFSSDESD

| SMILES | inhibition (INH) (Mus musculus [4]) | Activity (Mus musculus [5]) | Activity (Mus musculus [7]) | also measured |
| --- | --- | --- | --- | --- |
| Nc1oc2c(-c3ccccc3)nc(Oc3ccccc3)cc2c1Nc1ccc(F)c(Cl)c1 |  |  |  | IC50 [1]: > 2000 nM; IC50 [2]: > 1000 nM |
| Nc1oc2c(Cl)nccc2c1Nc1ccc(F)c(Cl)c1 | >50% | >=25 - 50% | >=25 - 50% | Activity (CT26 [3]): 26 - 38%; Activity (Mus musculus [6]): 40 - 50% |
| O=C(Nc1oc2cnccc2c1N(C(=O)OCc1ccccc1)c1ccc(F)c(Cl)c1)OCc1ccccc1 | >50% |  |  |  |
| C#Cc1cccc(Nc2c(N)oc3c(CC)nccc23)c1 | >50% |  |  |  |
| Nc1oc2cnc(F)cc2c1Nc1ccc(F)c(Cl)c1 | >50% | >=25 - 50% | <25% |  |
| Nc1oc2cnccc2c1Nc1cccc(C(F)(F)F)c1 | >50% |  |  | Activity (Mus musculus [8]): >=25 - 50%; Activity (Mus musculus [9]): >50% |
| Nc1sc2ccccc2c1Nc1cccc(Cl)c1 | >=25 - 50% |  |  |  |
| Nc1oc2cnccc2c1Nc1ccc(F)c(Br)c1 | >50% |  |  |  |
| Cc1cc(-c2nccc3c(Nc4ccc(F)cc4)c(N)oc23)ccn1 | >50% |  |  |  |
| Nc1oc2c(-c3ccnc(N4CCOCC4)c3)nccc2c1Nc1ccc(F)c(Cl)c1 | >50% | >50% | >=25 - 50% |  |
| CCOC(=O)Nc1oc2c(C#N)nccc2c1N(C(=O)OCC)c1ccc(F)c(Cl)c1 |  | >=25 - 50% | <25% |  |
| COCCNC(=O)c1ccc(-c2nccc3c(Nc4ccc(F)c(Cl)c4)c(N)oc23)cc1 | >50% |  |  |  |
| Nc1oc2c(-c3ccncc3)nccc2c1Nc1ccc(F)c(F)c1 | >50% | >50% | >50% | Activity (CT26 [10]): Active; Activity (Mus musculus [11]): 40 - 50%; Activity (CT26 [12]): 26 - 38%; Activity (CT26 [13]): Active |
| CCOC(=O)Nc1oc2cnccc2c1Nc1ccc(F)c(Cl)c1 |  |  |  | IC50 [1]: > 2000 nM; IC50 [2]: > 1000 nM |
| Nc1oc2c(-c3ccccc3Cl)nccc2c1Nc1ccc(F)c(Cl)c1 | >=25 - 50% |  |  | IC50 [1]: < 500 nM; IC50 [14]: < 200 nM |
| Nc1oc2c(-c3cccc4ccccc34)nccc2c1Nc1ccc(F)c(Cl)c1 | >=25 - 50% | >50% | >50% |  |
| Nc1oc2cnc(Cl)cc2c1Nc1ccc(F)c(Cl)c1 | >50% |  |  |  |
| Cc1cc(-c2nccc3c(Nc4ccc(F)c(F)c4)c(N)oc23)ccn1 | >50% | >50% | >50% |  |
| Cc1cc(-c2nccc3c(Nc4cccc(C(F)(F)F)c4)c(N)oc23)ccn1 | >50% |  |  |  |
| C#Cc1cccc(Nc2c(N)oc3c(-c4ccccc4)nccc23)c1 | >50% |  |  |  |
| Cc1cc(-c2nccc3c(Nc4ccc(F)c(Cl)c4)c(N)oc23)ccn1 | >50% | >50% | >50% |  |
| N#Cc1ccc(-c2nccc3c(Nc4ccc(F)c(Cl)c4)c(N)oc23)cc1 | >50% |  |  |  |

| SMILES | inhibition (INH) (Mus musculus [4]) | Activity (Mus musculus [5]) | Activity (Mus musculus [7]) | also measured |
| --- | --- | --- | --- | --- |
| N#Cc1nccc2c(Nc3ccc(F)c(Cl)c3)c(N)oc12 | >50% | >=25 - 50% | <25% |  |
| Nc1oc2cnccc2c1Nc1ccc(F)c(Cl)c1 | >50% |  |  | Kp at 1 h [15]: 10.7; Activity (CT26 [16]): Active; Kp at 0.5 h [17]: 9.8; Activity (Mus musculus [18]): 40 - 50%; Kp at 3 h [19]: 6 |
| Nc1oc2c(-c3ccncc3)nc(F)cc2c1Nc1ccc(F)c(Cl)c1 | >50% | <25% | >=25 - 50% |  |
| COc1ccccc1-c1nccc2c(Nc3ccc(F)c(Cl)c3)c(N)oc12 |  | <25% | <25% |  |
| COc1ccc(-c2nccc3c(Nc4ccc(F)c(Cl)c4)c(N)oc23)cc1 | >50% |  |  |  |
| Nc1oc2cnc(F)cc2c1Nc1ccc(F)c(C(F)(F)F)c1 |  |  |  | IC50 [1]: < 500 nM; IC50 [14]: < 200 nM |
| Nc1sc2c(-c3ccncc3)cccc2c1Nc1ccc(F)c(Cl)c1 | >=25 - 50% |  |  |  |
| Nc1oc2c(-c3ccc(F)c(F)c3)nccc2c1Nc1ccc(F)c(Cl)c1 | >=25 - 50% |  |  |  |
| Nc1oc2c(-c3ccncc3)nccc2c1Nc1ccc(F)c(Cl)c1 | >50% |  |  | Kp at 1 h [15]: 0.47; Activity (Mus musculus [20]): 40 - 50%; Activity (CT26 [21]): Active; Kp at 0.5 h [17]: 0.67; Activity (CT26 [22]): 26 - 38%; Activity (CT26 [23]): Active; Kp at 3 h [19]: 0.64 |
| Nc1oc2c(-c3ccncc3)nccc2c1Nc1ccc(F)c(C(F)(F)F)c1 | >50% |  |  |  |
| Nc1oc2c(F)nc(F)cc2c1Nc1ccc(F)c(Cl)c1 | >=25 - 50% | >=25 - 50% | >50% |  |
| Nc1sc2ccccc2c1Nc1ccccc1 |  |  |  | IC50 [1]: < 500 nM; IC50 [2]: 200 to 1000 nM |
| Nc1oc2c(-c3ccncc3)nc(F)cc2c1Nc1ccc(F)c(F)c1 | >50% | >=25 - 50% | >50% |  |
| N#Cc1nccc2c(Nc3ccc(F)c(C(F)(F)F)c3)c(N)oc12 | >50% | >=25 - 50% | <25% |  |
| Nc1oc2c(-c3ccc(F)c(F)c3F)nccc2c1Nc1ccc(F)c(Cl)c1 | >50% |  |  |  |
| Nc1sc2ccccc2c1Nc1ccc(F)c(Cl)c1 | >=25 - 50% |  |  |  |
| Nc1sc2cnccc2c1Nc1ccc(F)c(Cl)c1 | <25% |  |  |  |
| Cc1cc(-c2nccc3c(Nc4ccc(F)c(Cl)c4)c(N)oc23)cc(C)n1 | >50% | >=25 - 50% | >=25 - 50% |  |
| CCOC(=O)Nc1oc2cnccc2c1N(C(=O)OCC)c1ccc(F)c(Cl)c1 | >50% | >50% | >50% |  |
| CNC(=O)c1cc(-c2nccc3c(Nc4ccc(F)c(Cl)c4)c(N)oc23)ccn1 |  | >50% | >50% |  |
| Nc1oc2cnccc2c1Nc1ccc(F)c(F)c1 | >50% |  |  | IC50 [1]: 500 to 2000 nM; IC50 [2]: 200 to 1000 nM |
| Nc1oc2c(-c3ccc(F)cc3)nccc2c1Nc1ccc(F)c(Cl)c1 | >50% |  |  |  |
